Reference: paper PMC12290960, “Eremanthus erythropappus as a Source of Antiparasitic Agents: In Vitro and In Vivo Efficacy against Schistosoma mansoni” (ACS Omega, 2025)

Columns and labels:
[1] = system: S. mansoni adult worms; assay: In vitro antischistosomal assay on adult worms (mortality/viability by motility); assay type: cell-based, Schistosoma mansoni; details: for EC50: Schistosoma mansoni, mortality of S. mansoni adult worms, 95% CI in square brackets; for in vitro antischistosomal activity (in words): concentrations of up to 50 μM
[2] = system: S. mansoni (49 day old adult infection); assay: In vivo antischistosomal assay in S. mansoni-infected mice (worm burden, oogram, fecal egg count); set-up: species or system Schistosoma mansoni; details: for worm burden reduction (WBR): single dose 400 mg/kg p.o., treated 49 days postinfection, vs vehicle control
Protocol: The Belo Horizonte strain of Schistosoma mansoni was maintained in its life cycle using Biomphalaria glabrata snails (intermediate hosts) and female Swiss mice (final hosts). Three week old female Swiss mice (∼20 g) were obtained from […] para Laboratório (São Paulo, Brazil). Infected snails and mice were housed under controlled conditions (25 °C, 50% humidity, and 12 h light/dark cycles) with ad libitum access to food and water. Mice were percutaneously infected with 80 S. mansoni cercariae and treated 49 days postinfection (adult worm stage). […] At 63 days postinfection, mice were euthanized (CO2), and worms were recovered by mesenteric perfusion. Worm burden reduction was calculated after sexing, , and fecal egg counts were performed as previously described. , The study complied with ARRIVE guidelines, including randomization to minimize bias.

[3] = in vitro; details: African green monkey
[4] = system: Vero cells; assay: Cytotoxicity in mammalian cells (MTT assay); details: CC50 on Vero cells divided by EC50 on schistosomes

| SMILES | EC50 [1] [µM] | in vitro antischistosomal activity (in words) [1] | reduction in immature egg deposition (oogram, EBR immature) ([2]; 400 mg/kg p.o., 49 day old adult infection) [%] | reduction in number of eggs per gram of feces (egg load, EBR) ([2]; 400 mg/kg p.o., 49 day old adult infection, vs control) [%] | worm burden reduction (WBR) [2] [%] | CC50 at 72 h [3] [µM] | SI (selectivity index) [4] | CC50 [3] [µM] |
| --- | --- | --- | --- | --- | --- | --- | --- | --- |
| C[C@H]1C(=O)CC[C@@H]2[C@]1(C)CC[C@H]1[C@@]2(C)CC[C@@]2(C)[C@@H]3CC(C)(C)CC[C@]3(C)CC[C@]12C [friedelin (7), friedelan-3-one] | > 50 | inactive | – | – | – | – | – | – |
| O=C(C1CCCCC1)N1CC(=O)N2CCc3ccccc3C2C1 (stereo not shown) [praziquantel] | 0.8 | – | 96.8 | 93.9 | 92.6 | > 500 | >625 | – |
| COc1ccc(-c2cc(=O)c3c(O)cc(O)cc3o2)cc1 [acacetin (14), 5,7-dihydroxy-4′-methoxyflavone] | > 50 | inactive | – | – | – | – | – | – |
| C=C(C)[C@@H]1CC[C@]2(C(=O)O)CC[C@]3(C)[C@H](CC[C@@H]4[C@@]5(C)CC[C@H](O)C(C)(C)[C@@H]5CC[C@]43C)[C@@H]12 [betulinic acid (8), 3β-hydroxy-20(29)-lupaene-28-oic acid] | 36.8 | – | – | – | 41.9 | – | – | > 500 |
